Measurements published in patent US20100041590A1, “Compounds” (priority 2006, published 2010).
Counter-ions that a name gives are not always drawn.

The compounds below were run against T1, SCD (SCD-containing rat microsomes) (Rattus norvegicus, UniProt P07308) (assay: in vitro assay for SCD activity based on production of [3H]H2O from [9,10-3H] stearoyl Coenzyme A). Conditions: SCD-containing rat microsomes (2 μg protein), substrate 1 μM, 6 min incubation, 5 min preincubation with compound; read-out: average pIC50 value, in vitro assay for SCD activity (converted).
T1 construct: SCD-containing rat microsomes (2 μg protein); from tissue
T1 sequence (P07308 1-358): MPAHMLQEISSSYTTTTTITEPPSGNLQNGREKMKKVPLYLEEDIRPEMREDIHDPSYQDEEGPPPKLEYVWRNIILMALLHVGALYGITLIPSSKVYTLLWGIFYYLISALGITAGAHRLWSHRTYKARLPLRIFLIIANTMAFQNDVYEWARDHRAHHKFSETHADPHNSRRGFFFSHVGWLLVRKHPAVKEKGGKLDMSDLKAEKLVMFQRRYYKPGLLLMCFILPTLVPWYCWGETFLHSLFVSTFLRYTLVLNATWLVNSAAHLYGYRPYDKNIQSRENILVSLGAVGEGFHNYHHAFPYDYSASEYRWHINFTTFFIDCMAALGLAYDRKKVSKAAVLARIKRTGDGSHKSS
Format: biochemical
Experimental: The compounds of the present invention may be analysed in vitro for SCD activity using an assay based on the production of [^3H]H2O, which is released during the enzyme-catalyzed generation of the monounsaturated fatty acyl CoA product. The assay is performed in a 96-well filtration plates. The titrated substrate used in the assay is the [9,10-^3H] stearoyl Coenzyme A. After incubation for 6 minutes of SCD-containing rat microsomes (2 μg protein) and substrate (1 μM), the labelled fatty acid acyl-CoA species and microsomes are absorbed with charcoal and separated from [^3H]H2O by centrifugation. The formation of [^3H]H2O is used as a measure of SCD activity. Compounds at concentrations starting at 10 μM to 0.1 nM or vehicle (DMSO) are preincubated for 5 minutes with the microsomes before addition of the substrate. The concentration-responses are fitted with sigmoidal curves to obtain IC50 values.

| IC50 [µM] | SMILES |
| --- | --- |
| 3.16 to 10 | CCCc1cc(C(=O)Nc2ccc3c(c2)CCNC3)nn1Cc1cc(Cl)ccc1OCC(C)C [1-({5-chloro-2-[(2-methylpropyl)oxy]phenyl}methyl)-5-propyl-N-(1,2,3,4-tetrahydro-6-isoquinolinyl)-1H-pyrazole-3-carboxamide hydrochloride] |
| > 10 | CC(C)COc1ccc(Cl)cc1Cn1nc(C(=O)Nc2ccc3c(c2)CCNC3)cc1C1CC1 [1-({5-chloro-2-[(2-methylpropyl)oxy]phenyl}methyl)-5-cyclopropyl-N-(1,2,3,4-tetrahydro-6-isoquinolinyl)-1H-pyrazole-3-carboxamide hydrochloride] |
| < 3.16 | CCc1cc(NC(=O)c2ccc3c(c2)CCNC3)nn1Cc1cc(Cl)ccc1OCC(C)C [Example 1, N-[1-({5-chloro-2-[(2-methylpropyl)oxy]phenyl}methyl)-5-ethyl-1H-pyrazol-3-yl]-1,2,3,4-tetrahydro-6-isoquinolinecarboxamide hydrochloride] |
| < 3.16 | CC(C)COc1ccc(Cl)cc1Cn1nc(NC(=O)c2ccc3c(c2)CCNC3)cc1C1CC1 [Example 2, N-[1-({5-chloro-2-[(2-methylpropyl)oxy]phenyl}methyl)-5-cyclopropyl-1H-pyrazol-3-yl]-1,2,3,4-tetrahydro-6-isoquinolinecarboxamide hydrochloride] |
